Entries after “also recorded” stand apart in the source; their conditions may differ.
Assays:
MC-38 tumor cells [1] = test: FACS analysis of the tumors at necropsy, MC-38 CRC tumor model (Example 7); format: in vivo, mice
Procedure: The combined treatment with Plinabulin and a PD-1 checkpoint inhibitor in combination with a CTLA-4 checkpoint inhibitor was tested in comparison with the treatment with Plinabulin alone, the treatment with PD-1 antibody alone, or the treatment with PD-1 antibody in combination with CTLA-4 antibody. The tests were performed using seven to ten-week old mice that were injected subcutaneously with MC-38 tumor cells. Six testing groups were prepared, and each group included 10 mice.
Group 1 was administered with IgG2a and plinabulin vehicle; Group 2 was administered with Plinabulin dissolved in diluent at a concentration of 7.5 mg/kg; Group 3 was administered with PD-1 antibody; Group 4 was administered with a Plinabulin/PD-1 antibody combined treatment; Group 5 was administered combined PD-1/CTLA-4 antibodies; and Group 6 was administered combined PD-1 antibody/CTLA-4 antibody/Plinabulin treatment. For the Plinabulin/PD-1 antibody combined treatment (Group 4) and the Plinabulin/PD-1/CTLA-4 antibody treatment (Group 6), the mice were administered twice per week (Day 1 and Day 4 of each week) with Plinabulin (7.5 mg/kg) that was dissolved in diluent, followed by administering antibody (ies) one hour after each Plinabulin administration. For the Plinabulin only treatment (Group 2) or the antibody (ies) only treatment (Groups 3 and 5), mice were administered Plinabulin (7.5 mg/kg dissolved in diluent) or antibody (ies) alone twice per week (Day 1 and Day 4 of each week).
Each treatment started at tumor size of around 125 mm^3 and continued until tumor size of 3000 mm^3 was reached. […] To determine the efficacy of each treatment, the following data were collected: mortality rate prior to tumor size reaching 3000 mm^3; the body weight of the mice assessed twice weekly both prior to treatments; the rate of tumor growth as determined by the tumor size measurement (twice every week); the tumor growth index; overall survival rate; the tumor weight at necropsy; and the time required to increase tumor size 10 fold. […]

SP37A3 DCs [2] = test: Expression of DC maturation markers CD40, CD80, CD86 and MHCII by flow cytometry; format: cell-based, mouse; settings: 0.001-10 μM, 20 h
Procedure: Cell lines: The immature mouse DC cell line SP37A3 (provided by Merck KGaA) was cultured in Iscove's Modified Dulbecco's Medium (IMDM; Sigma) supplemented with 10% heat-inactivated and endotoxin-tested FBS (PAA), sodium pyruvate (Gibco), penicillin/streptomycin L-glutamine mix (Gibco), Eagle's Minimum Essential Medium (MEM) nonessential amino acids (Sigma), Ciproxin (Bayer), and 0.05 mmol/L 2-mercaptoethanol (Gibco). IMDM complete medium was supplemented with 20 ng/mL recombinant mouse GM-CSF and 20 ng/mL recombinant mouse M-CSF (both Peprotech). The murine tumor cell lines EG7 and 3LL-OVA were obtained from ATCC or provided by Douglas T. Fearon (Cancer Research UK Cambridge Institute, Li Ka Shing Centre, University of Cambridge, Cambridge, UK), respectively. All cell lines were tested and validated to be Mycoplasma-free. Expression of OVA in EG7 and 3LL-OVA, and of Thy1.1 in RMAThy1.1, respectively, was confirmed; no genomic authentication was performed.
SP37A3 DCs (murine DC line, Merck) were plated (8×10^4 cells/well, 96-well flat bottom, tissue-culture treated) in 180 uL IMDM complete medium [IMDM medium (Sigma) supplemented with 10% heat-inactivated and endotoxin-tested FBS (PAA), sodium pyruvate (Gibco), penicillin/streptomycin L-glutamine mix (Gibco), MEM nonessential amino acids (Sigma) and 0.05 mM 2-mercaptoethanol (Gibco)]. IMDM complete medium was supplemented with 20 ng/mL recombinant mouse GM-CSF. DCs were allowed to adhere for two hours before Plinabulin, medium, or LPS as controls were added 10× concentrated in 20 uL. DCs were incubated with Plinabulin in various concentrations (0.001 μM, 0.01 μM, 0.1 μM, 1 μM, 10 μM), medium, and LPS respectively for 20 h. Supernatants of these cultures were collected and used for detection of cytokine production by ELISA (kits available from BD) and the cells were stained with the LD-IR viability dye (Invitrogen) as well as with fluorochrom-labeled monoclonal antibodies against CD80, CD86, CD40 and MHCII for flow cytometric analysis. Cells were analyzed using a BD Fortessa Cytometer equipped with DIVA software. Mean fluorescence intensity (MFI) of the DC maturation markers CD40, CD80, CD86 and MHCII in live cells was normalized to the MFI of those markers detected in untreated (medium) DCs.
Two other cancer drugs, Paclitaxel and Etoposide, were also tested to compare their effects on DC maturation with Plinabulin. […] Cells were analyzed using a BD Fortessa Cytometer equipped with DIVA software. Mean fluorescence intensity (MFI) of the DC maturation markers CD40 (FIG. 2A), CD80 (FIG. 2B), CD86 (FIG. 2C) and MHCII (FIG. 2D) in live cells was normalized to the MFI of those markers detected in untreated (medium) DCs. […]

SP37A3 DCs [3] = test: DC viability (SytoxGreen staining); format: cell-based, mouse; settings: FIG. 1B, 0.001-10 μM, 20 h
MC-38 tumor cells [4] = test: MC-38 tumor model, Plinabulin with PD-1 antibody and CTLA-4 antibody (Example 7); format: in vivo, mice; settings: Example 7, FIG. 4B; six treatment groups
Procedure: The combined treatment with Plinabulin and a PD-1 checkpoint inhibitor in combination with a CTLA-4 checkpoint inhibitor was tested in comparison with the treatment with Plinabulin alone, the treatment with PD-1 antibody alone, or the treatment with PD-1 antibody in combination with CTLA-4 antibody. The tests were performed using seven to ten-week old mice that were injected subcutaneously with MC-38 tumor cells. Six testing groups were prepared, and each group included 10 mice. Group 1 was administered with IgG2a and plinabulin vehicle; Group 2 was administered with Plinabulin dissolved in diluent at a concentration of 7.5 mg/kg; Group 3 was administered with PD-1 antibody; Group 4 was administered with a Plinabulin/PD-1 antibody combined treatment; Group 5 was administered combined PD-1/CTLA-4 antibodies; and Group 6 was administered combined PD-1 antibody/CTLA-4 antibody/Plinabulin treatment. For the Plinabulin/PD-1 antibody combined treatment (Group 4) and the Plinabulin/PD-1/CTLA-4 antibody treatment (Group 6), the mice were administered twice per week (Day 1 and Day 4 of each week) with Plinabulin (7.5 mg/kg) that was dissolved in diluent, followed by administering antibody (ies) one hour after each Plinabulin administration. […] At necropsy the tissues were weighed and subjected to FACS analysis.

SP37A3 DCs [5] = test: Production of pro-inflammatory cytokines by DCs (ELISA of supernatants); format: cell-based, mouse; settings: Example 2, FIG. 3A-3C, 20 h
Procedure: Two other cancer drugs, Paclitaxel and Etoposide, were also tested to compare their effects on DC maturation with Plinabulin. SP37A3 DCs (murine DC line, Merck) were plated (8×10^4 cells/well, 96-well flat bottom, tissue-culture treated) in 180 uL IMDM complete medium [IMDM medium (Sigma) supplemented with 10% heat-inactivated and endotoxin-tested FBS (PAA), sodium pyruvate (Gibco), penicillin/streptomycin L-glutamine mix (Gibco), MEM nonessential amino acids (Sigma) and 0.05 mM 2-mercaptoethanol (Gibco)]. IMDM complete medium was supplemented with 20 ng/mL recombinant mouse GM-CSF. DCs were allowed to adhere for two hours before Plinabulin, Paclitaxel, Etoposide, medium, or LPS (positive control) were added 10× concentrated in 20 uL. […] Cells were analyzed using a BD Fortessa Cytometer equipped with DIVA software. Mean fluorescence intensity (MFI) of the DC maturation markers CD40 (FIG. 2A), CD80 (FIG. 2B), CD86 (FIG. 2C) and MHCII (FIG. 2D) in live cells was normalized to the MFI of those markers detected in untreated (medium) DCs. The production of the pro-inflammatory cytokines IL-1β(FIG. 3A), IL-6 (FIG. 3B), and IL-12p40 (FIG. 3C) were also determined by ELISA.

## CC(C)(C)c1[nH]cnc1/C=c1\[nH]c(=O)/c(=C/c2ccccc2)[nH]c1=O [Plinabulin, (3Z,6Z)-3-Benzylidene-6-{[5-(2-methyl-2-propanyl)-1H-imidazol-4-yl]methylene}-2,5-piperazinedione]
MC-38 tumor cells [1]; FIG. 5A, vs comparator group without plinabulin
  percentage of Treg cells in tumor: reduction in % Treg cells; also recorded: decreased percentage of Regulatory T cells
MC-38 tumor cells [1]; FIG. 5B
  ratio of CD8+ cells to Treg cells in tumor: increase in the ratio of CD8+/Treg cells
MC-38 tumor cells [1]; FIG. 5C, vs respective comparator groups
  percentage of macrophages in CD45+ lymphocytes in tumor: decreased percentage of macrophage stained cells
SP37A3 DCs [2]; Example 1, FIG. 1A
  expression of DC maturation markers CD40, CD80, CD86 and MHCII (MFI normalized to untreated DCs): significantly increased expression of all four DC maturation markers
SP37A3 DCs [2]; Example 2, FIG. 2A-2D
  expression of DC maturation markers CD40, CD80, MHCII and CD86 compared with Paclitaxel and Etoposide: much greater expression of all four DC maturation markers
  expression of DC maturation markers compared with positive control LPS: significantly increased expression of all four markers
SP37A3 DCs [2]; Example 2
  induction of DC maturation, rank among Plinabulin, Paclitaxel and Etoposide: most potent inducer of DC maturation among all three drugs
SP37A3 DCs [3]
  DC viability: did not change significantly
MC-38 tumor cells [4]
  mean tumor weight at necropsy: decreased tumor weight at necropsy
SP37A3 DCs [5]
  production of IL1b, IL6 and IL12 (IL-12p40) compared with Paclitaxel, Etoposide and LPS: increased production of IL1b, IL6, and IL12
